The structures appear in SMILES notation.

The EC50 is the midpoint of the concentration-response curve. In general, CC50 refers to the concentration at which the toxic effect on the cells reaches its halfway point. Higher therefore signals better tolerance by the cells.

In data set [1] the test system is recombinant NL4-3 virus (Renilla luciferase) in MT-2 cells. Description: HIV cell culture assay (antiviral activity, luciferase readout). The class given is cell-based. The conditions noted are these: Renilla, NL43. How it is done: HIV cell culture assay—MT-2 cells, 293T cells and the proviral DNA clone of NL4-3 virus were obtained from the NIH AIDS Research and Reference Reagent Program. MT-2 cells were propagated in RPMI 1640 media supplemented with 10% heat inactivated fetal bovine serum (FBS), 100 μg/ml penicillin G and up to 100 units/mL streptomycin. The 293T cells were propagated in DMEM media supplemented with 10% heat inactivated FBS, 100 μg/mL penicillin G and 100 μg/mL streptomycin. A recombinant NL4-3 proviral clone, in which a section of the nef gene was replaced with the Renilla luciferase gene, was used to make the reference virus used in these studies. The recombinant virus was prepared through transfection of the recombinant NL4-3 proviral clone into 293T cells using Transit-293 Transfection Reagent from Mirus Bio LLC (Madison, Wis.). Supernatent was harvested after 2-3 days and the amount of virus present was titered in MT-2 cells using luciferase enzyme activity as a marker by measuring luciferase enzyme activity. Luciferase was quantitated using the EnduRen Live Cell Substrate from Promega (Madison, Wis.). Antiviral activities of compounds toward the recombinant virus were quantified by measuring luciferase activity in MT-2 cells infected for 4-5 days with the recombinant virus in the presence of serial dilutions of the compound.
The 50% effective concentration (EC50) was calculated by using the exponential form of the median effect equation where (Fa)=1/[1+(ED50/drug conc.)m] (Johnson V A, Byington R T. Infectivity Assay. In Techniques in HIV Research. ed. Aldovini A, Walker B D. 71-76. New York: Stockton Press. 1990).

Data set [2] in a line: Compound cytotoxicity, XTT-based colorimetric assay. Format: cell-based. The note with it: human; uninfected MT2 cells, day 4, XTT assay. How it is done: Compound cytotoxicity and the corresponding CC50 values were determined using the same protocol as described in the antiviral assay except that uninfected cells were used. Cytotoxicity was assessed on day 4 in uninfected MT2 cells by using a XTT (2,3-bis[2-Methoxy-4-nitro-5-sulfophenyl]-2H-tetrazolium-5-carboxyanilide inner salt)-based colorimetric assay (Sigma-Aldrich, St Louis, Mo.).

With `Cn1nc(NS(C)(=O)=O)c2c(Cl)ccc(-n3c([C@H](Cc4cc(F)cc(F)c4)NC(=O)Cn4nc(C(F)F)c5c4C(F)(F)[C@@H]4C[C@H]54)nc4cc(-c5ccccc5F)cnc4c3=O)c21` (atropisomer, axis not shown; (P)) [Example 38, N—((S)-1-((3P)-3-(4-chloro-1-methyl-3-(methylsulfonamido)-1H-indazol-7-yl)-7-(2-fluorophenyl)-4-oxo-3,4-dihydropyrido[3,2-d]pyrimidin-2-yl)-2-(3,5-difluorophenyl)ethyl)-2-((3bS,4aR)-3-(difluoromethyl)-5,5-difluoro-3b,4,4a,5-tetrahydro-1H-cyclopropa[3,4]cyclopenta[1,2-c]pyrazol-1-yl)acetamide], the EC50 in data set [1] worked out at 1.9 nM. The compound further came in with a cytotoxic concentration (CC50) at 4 day in data set [2] of more than 500 nM.
On to `Cn1nc(NS(C)(=O)=O)c2c(Cl)ccc(-n3c([C@H](Cc4cc(F)cc(F)c4)NC(=O)Cn4nc(C(F)F)c5c4C(F)(F)[C@@H]4C[C@H]54)nc4nc(-c5c(F)cc(F)cc5F)ccc4c3=O)c21` (atropisomer, axis not shown; (P)) [Example 28, N—((S)-1-((3P)-3-(4-chloro-1-methyl-3-(methylsulfonamido)-1H-indazol-7-yl)-4-oxo-7-(2,4,6-trifluorophenyl)-3,4-dihydropyrido[2,3-d]pyrimidin-2-yl)-2-(3,5-difluorophenyl)ethyl)-2-((3bS,4aR)-3-(difluoromethyl)-5,5-difluoro-3b,4,4a,5-tetrahydro-1H-cyclopropa[3,4]cyclopenta[1,2-c]pyrazol-1-yl)acetamide], for which the EC50 in data set [1] turned out to be 0.032 nM. The compound further showed a CC50 at 4 day in data set [2] of more than 100 nM.
For `CS(=O)(=O)Nc1nn(CC(F)(F)F)c2c(-n3c([C@H](Cc4cc(F)cc(F)c4)NC(=O)Cn4nc(C(F)(F)F)c5c4C(F)(F)[C@@H]4C[C@H]54)nc4nc(-c5ccccc5F)ccc4c3=O)ccc(Cl)c12` (atropisomer, axis not shown; (P)) [Example 11, N—((S)-1-((3P)-3-(4-chloro-3-(methylsulfonamido)-1-(2,2,2-trifluoroethyl)-1H-indazol-7-yl)-7-(2-fluorophenyl)-4-oxo-3,4-dihydropyrido[2,3-d]pyrimidin-2-yl)-2-(3,5-difluorophenyl)ethyl)-2-((3bS,4aR)-5,5-difluoro-3-(trifluoromethyl)-3b,4,4a,5-tetrahydro-1H-cyclopropa[3,4]cyclopenta[1,2-c]pyrazol-1-yl)acetamide] the same measures were 0.15 nM and more than 100 nM.
`Cn1nc(NS(C)(=O)=O)c2c(Cl)ccc(-n3c([C@H](Cc4cc(F)cc(F)c4)NC(=O)Cn4nc(C(F)F)c5c4C(F)(F)[C@@H]4C[C@H]54)nc4nc(-c5ccc(F)c(CO)c5)ccc4c3=O)c21` (atropisomer, axis not shown; (P)) [Example 5, N—((S)-1-((3P)-3-(4-chloro-1-methyl-3-(methylsulfonamido)-1H-indazol-7-yl)-7-(4-fluoro-3-(hydroxymethyl)phenyl)-4-oxo-3,4-dihydropyrido[2,3-d]pyrimidin-2-yl)-2-(3,5-difluorophenyl)ethyl)-2-((3bS,4aR)-3-(difluoromethyl)-5,5-difluoro-3b,4,4a,5-tetrahydro-1H-cyclopropa[3,4]cyclopenta[1,2-c]pyrazol-1-yl)acetamide]: in data set [1], the EC50 stood at 0.16 nM. In addition, in data set [2], the CC50 at 4 day is more than 500 nM.
On the same counts, the results for `Cn1nc(NS(C)(=O)=O)c2c(Cl)ccc(-n3c([C@H](Cc4cc(F)cc(F)c4)NC(=O)Cn4nc(C(F)F)c5c4C(F)(F)[C@@H]4C[C@H]54)nc4nc(-c5ccc(F)c(C#N)c5)ccc4c3=O)c21` (atropisomer, axis not shown; (P)) [Example 30, N—((S)-1-((3P)-3-(4-chloro-1-methyl-3-(methylsulfonamido)-1H-indazol-7-yl)-7-(3-cyano-4-fluorophenyl)-4-oxo-3,4-dihydropyrido[2,3-d]pyrimidin-2-yl)-2-(3,5-difluorophenyl)ethyl)-2-((3bS,4aR)-3-(difluoromethyl)-5,5-difluoro-3b,4,4a,5-tetrahydro-1H-cyclopropa[3,4]cyclopenta[1,2-c]pyrazol-1-yl)acetamide] are 0.078 nM and more than 100 nM.
For the compound `Cn1nc(NS(C)(=O)=O)c2c(Cl)ccc(-n3c([C@H](Cc4cc(F)cc(F)c4)NC(=O)Cn4nc(C(F)F)c5c4C(F)(F)[C@@H]4C[C@H]54)nc4nc(-c5ccc(C(F)(F)F)cc5)ccc4c3=O)c21` (atropisomer, axis not shown; (P)) [Example 14, N—((S)-1-((3P)-3-(4-chloro-1-methyl-3-(methylsulfonamido)-1H-indazol-7-yl)-4-oxo-7-(4-(trifluoromethyl)phenyl)-3,4-dihydropyrido[2,3-d]pyrimidin-2-yl)-2-(3,5-difluorophenyl)ethyl)-2-((3bS,4aR)-3-(difluoromethyl)-5,5-difluoro-3b,4,4a,5-tetrahydro-1H-cyclopropa[3,4]cyclopenta[1,2-c]pyrazol-1-yl)acetamide], in data set [1], the EC50 is 0.084 nM. For the same compound, the CC50 at 4 day in data set [2] was more than 100 nM.
With `Cn1nc(NS(C)(=O)=O)c2c(Cl)ccc(-n3c([C@H](Cc4cc(F)cc(F)c4)NC(=O)Cn4nc(C(F)F)c5c4C(F)(F)[C@@H]4C[C@H]54)nc4nc(-c5ccc(F)c(F)c5F)ccc4c3=O)c21` (atropisomer, axis not shown; (P)) [Example 15, N—((S)-1-((3P)-3-(4-chloro-1-methyl-3-(methylsulfonamido)-1H-indazol-7-yl)-4-oxo-7-(2,3,4-trifluorophenyl)-3,4-dihydropyrido[2,3-d]pyrimidin-2-yl)-2-(3,5-difluorophenyl)ethyl)-2-((3bS,4aR)-3-(difluoromethyl)-5,5-difluoro-3b,4,4a,5-tetrahydro-1H-cyclopropa[3,4]cyclopenta[1,2-c]pyrazol-1-yl)acetamide], the EC50 in data set [1] was found to be 0.035 nM. In data set [2], this compound yielded a CC50 at 4 day of more than 100 nM.
On to `Cn1nc(NS(C)(=O)=O)c2c(Cl)ccc(-n3c([C@H](Cc4cc(F)cc(F)c4)NC(=O)Cn4nc(C(F)F)c5c4C(F)(F)[C@@H]4C[C@H]54)nc4nc(-c5ccc(F)cc5S(C)(=O)=O)ccc4c3=O)c21` (atropisomer, axis not shown; (P)) [Example 19, N—((S)-1-((3P)-3-(4-chloro-1-methyl-3-(methylsulfonamido)-1H-indazol-7-yl)-7-(4-fluoro-2-(methylsulfonyl)phenyl)-4-oxo-3,4-dihydropyrido[2,3-d]pyrimidin-2-yl)-2-(3,5-difluorophenyl)ethyl)-2-((3bS,4aR)-3-(difluoromethyl)-5,5-difluoro-3b,4,4a,5-tetrahydro-1H-cyclopropa[3,4]cyclopenta[1,2-c]pyrazol-1-yl)acetamide], for which, in data set [1], the EC50 is 0.12 nM. Moreover, the CC50 at 4 day in data set [2] is more than 500 nM.
Take `COc1c(F)ccc(-c2ccc3c(=O)n(-c4ccc(Cl)c5c(NS(C)(=O)=O)nn(C)c45)c([C@H](Cc4cc(F)cc(F)c4)NC(=O)Cn4nc(C(F)F)c5c4C(F)(F)[C@@H]4C[C@H]54)nc3n2)c1F` (atropisomer, axis not shown; (P)) [Example 26, N—((S)-1-((3P)-3-(4-chloro-1-methyl-3-(methylsulfonamido)-1H-indazol-7-yl)-7-(2,4-difluoro-3-methoxyphenyl)-4-oxo-3,4-dihydropyrido[2,3-d]pyrimidin-2-yl)-2-(3,5-difluorophenyl)ethyl)-2-((3bS,4aR)-3-(difluoromethyl)-5,5-difluoro-3b,4,4a,5-tetrahydro-1H-cyclopropa[3,4]cyclopenta[1,2-c]pyrazol-1-yl)acetamide]: in data set [1], the EC50 is 0.062 nM. The compound further came in with a half-maximal cytotoxic concentration (CC50) at 4 day in data set [2] of more than 100 nM.
Turning to `Cn1nc(NS(C)(=O)=O)c2c(Cl)ccc(-n3c([C@H](Cc4cc(F)cc(F)c4)NC(=O)Cn4nc(C(F)F)c5c4C(F)(F)[C@@H]4C[C@H]54)nc4nc(-c5cc(F)ccc5F)ccc4c3=O)c21` (atropisomer, axis not shown; (P)) [Example 9, N—((S)-1-((3P)-3-(4-chloro-1-methyl-3-(methylsulfonamido)-1H-indazol-7-yl)-7-(2,5-difluorophenyl)-4-oxo-3,4-dihydropyrido[2,3-d]pyrimidin-2-yl)-2-(3,5-difluorophenyl)ethyl)-2-((3bS,4aR)-3-(difluoromethyl)-5,5-difluoro-3b,4,4a,5-tetrahydro-1H-cyclopropa[3,4]cyclopenta[1,2-c]pyrazol-1-yl)acetamide], the EC50 in data set [1] came out at 0.12 nM. This compound yielded a CC50 at 4 day in data set [2] of more than 500 nM.
With `Cn1nc(NS(C)(=O)=O)c2c(Cl)ccc(-n3c([C@H](Cc4cc(F)cc(F)c4)NC(=O)Cn4ccc(C5CC5)n4)nc4nc(-c5ccccc5F)ccc4c3=O)c21` (atropisomer, axis not shown; (P)) [Example 34, (S)—N-(1-((3P)-3-(4-chloro-1-methyl-3-(methylsulfonamido)-1H-indazol-7-yl)-7-(2-fluorophenyl)-4-oxo-3,4-dihydropyrido[2,3-d]pyrimidin-2-yl)-2-(3,5-difluorophenyl)ethyl)-2-(3-cyclopropyl-1H-pyrazol-1-yl)acetamide], in data set [1], the EC50 was found to be 0.089 nM. For the same compound, the CC50 at 4 day in data set [2] is more than 500 nM.

These data come from patent US20220089598A1, “INHIBITORS OF HUMAN IMMUNODEFICIENCY VIRUS REPLICATION” (VIIV HEALTHCARE UK (No. 5) LIMITED, priority 2018, published 2022).
